# From patent publication US11098056B2, “UDP glycosyltransferase inhibitors and methods of use” (GENZYME CORPORATION, priority 2018, dated 2021)
# Target: T1, UGT8 (Homo sapiens, UniProt Q16880)
# T1 construct: host or cells: OE19 cells
# T1 sequence (Q16880 21-541): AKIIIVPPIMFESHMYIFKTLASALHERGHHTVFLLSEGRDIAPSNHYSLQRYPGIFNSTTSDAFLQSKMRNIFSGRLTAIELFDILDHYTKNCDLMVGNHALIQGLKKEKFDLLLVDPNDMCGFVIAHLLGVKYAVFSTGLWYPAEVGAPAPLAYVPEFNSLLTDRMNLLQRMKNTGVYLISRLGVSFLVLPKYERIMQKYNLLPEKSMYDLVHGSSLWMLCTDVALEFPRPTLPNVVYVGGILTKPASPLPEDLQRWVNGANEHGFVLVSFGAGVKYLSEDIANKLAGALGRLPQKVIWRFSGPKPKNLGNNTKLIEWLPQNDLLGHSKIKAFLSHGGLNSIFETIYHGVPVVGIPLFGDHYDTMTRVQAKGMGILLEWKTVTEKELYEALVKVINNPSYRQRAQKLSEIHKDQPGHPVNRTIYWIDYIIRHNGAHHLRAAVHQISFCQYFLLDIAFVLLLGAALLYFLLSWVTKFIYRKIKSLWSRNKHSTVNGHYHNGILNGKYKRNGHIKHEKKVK
# Experiment: In vitro sulfatide (SFT) synthesis inhibition in OE19 cells, LC-MS/MS readout
# Format: cell-based
# Details: 72 hr, sulfatide by LC-MS/MS, read-out: Potency range (IC50, In-vitro SFT)
# Description: For medium throughput screening, library compounds were dispensed into CellBIND 384 well plates to a final concentration of 10 μM. OE19 cells (Sigma) were grown in to 70-90% confluency in RPMI 1640+L-glutamine and […]; were trypsinized to achieve suspension and were aliquoted at 2,500 cells/well, total well volume 50 μl. Plates were incubated 72 hr at 37° C. in 5% CO2; supernatant was removed and plates were dried, heat-sealed and stored at −20° C. until analysis.
# For IC50 determinations, the same procedure was followed except that test compounds were added to the plate as dose-downs in triplicate to yield concentration response curves.
# Mass Spectrometer Analysis of Sulfatide (SFT):
# Assay plates were thawed and 85 μl mobile phase B (5 mM ammonium formate^+0.2% formic acid in 50:50 methanol:acetonitrile). Fifteen μl 20 ng/ml C17 SFT in mobile phase B was added as an internal standard.
# SFT was analyzed using an Applied Biosystems API-4000 triple quad mass spectrometer interfaced to a Thermo Scientific Multiplex system (LX-4) equipped with four pumps. Chromatography of OE19 cell samples or 2B5-mouse cells treated with compounds was performed using a Waters Acquity UPLC BEH C8 2.1×50 mm column with 1.7 um particle size. The chromatography was performed using the following mobile phases. Mobile phase A (MPA): 0.2% formic acid and 5 mM ammonium formate in deionized water; MPB: see above. The LC method was run in isocratic mode for 4 sequentially running columns using 95% MPB and 5% MPA with flow rate of 1 ml/min and a column temperature of 60° C.
# The Triple quad mass spectrometer was run in Negative Ionization mode monitoring the following MRM transitions and using the following parameters:
# Electrospray voltage was […], and source temperature was 550° C.
row,SMILES,IC50 [nM]
1,"CNC(=O)c1csc2c(C(F)(F)F)c(C)c(O[C@@H]3CCN(C(=O)O[C@@H](C)COC(F)(F)F)[C@H](C)C3)nc12 [Example 176, (S)-1-(Trifluoromethoxy)propan-2-yl (2R,4R)-2-methyl-4-((6-methyl-3-(methylcarbamoyl)-7-(trifluoromethyl)thieno[3,2-b]pyridin-5-yl)oxy)piperidine-1-carboxylate]",< 100
2,"CNC(=O)c1csc2c(C(F)(F)F)c(C)c(O[C@@H]3CCN(C(=O)OCCOC(F)(F)F)C[C@@H]3F)nc12 [Example 180, 2-(Trifluoromethoxy)ethyl (3S,4R)-3-fluoro-4-((6-methyl-3-(methylcarbamoyl)-7-(trifluoromethyl)thieno[3,2-b]pyridin-5-yl)oxy)piperidine-1-carboxylate]",< 100
3,"CNC(=O)c1csc2c(C(F)(F)F)c(C)c(O[C@@H]3CCN(C(=O)O[C@@H](C)COC(F)(F)F)C[C@@H]3F)nc12 [Example 181, (S)-1-(Trifluoromethoxy)propan-2-yl (3S,4R)-3-fluoro-4-((6-methyl-3-(methylcarbamoyl)-7-(trifluoromethyl)thieno[3,2-b]pyridin-5-yl)oxy)piperidine-1-carboxylate]",< 100
4,"CNC(=O)c1csc2c(C(F)(F)F)c(C)c(O[C@H]3CCN(C(=O)O[C@@H](C)COC(F)(F)F)C[C@H]3F)nc12 [Example 183, (S)-1-(Trifluoromethoxy)propan-2-yl (3R,4S)-3-fluoro-4-((6-methyl-3-(methylcarbamoyl)-7-(trifluoromethyl)thieno[3,2-b]pyridin-5-yl)oxy)piperidine-1-carboxylate]",< 100
5,"CNC(=O)c1csc2c(C(F)(F)F)nc(N3CCC(OC(=O)N[C@@H](C)COC)CC3)nc12 [Example 186, 1-(7-(Methylcarbamoyl)-4-(trifluoromethyl)thieno[3,2-d]pyrimidin-2-yl)piperidin-4-yl (S)-(1-methoxypropan-2-yl)carbamate]",< 100
6,"CNC(=O)c1csc2c(C(F)(F)F)nc(N3CCC(OC(=O)N[C@@H](C)C4CC4)CC3)nc12 [Example 187, 1-(7-(Methylcarbamoyl)-4-(trifluoromethyl)thieno[3,2-d]pyrimidin-2-yl)piperidin-4-yl-(S)-(1-cyclopropylethyl)carbamate]",< 100
7,"CNC(=O)c1csc2c(C(F)(F)F)cc(N3CC(Oc4cncc(F)c4)C3)nc12 [Example 190, 5-(3-((5-Fluoropyridin-3-yl)oxy)azetidin-1-yl)-N-methyl-7-(trifluoromethyl)thieno[3,2-b]pyridine-3-carboxamide]",100 to 1000
8,"CNC(=O)c1csc2c(C(F)(F)F)cc(OC3CC4(C3)CN(C(=O)O[C@H](C)C3CC3)C4)nc12 [Example 204, (R)-1-Cyclopropylethyl 6-((3-(methylcarbamoyl)-7-(trifluoromethyl)thieno[3,2-b]pyridin-5-yl)oxy)-2-azaspiro[3.3]heptane-2-carboxylate]",< 100
9,"CNC(=O)c1csc2c(C(F)(F)F)cc(OC3CC4(CCN4C(=O)OCCOC(F)(F)F)C3)nc12 (centres unmarked) [Example 212, 2-(Trifluoromethoxy)ethyl 6-((3-(methylcarbamoyl)-7-(trifluoromethyl)thieno[3,2-b]pyridin-5-yl)oxy)-1-azaspiro[3.3]heptane-1-carboxylate]",100 to 1000
10,"CNC(=O)c1csc2c(C(F)(F)F)c(C)c(O[C@H]3C[C@@H](NC(=O)OCC4CC4)C3)nc12 [Example 218, Cyclopropylmethyl ((1S,3S)-3-((6-methyl-3-(methylcarbamoyl)-7-(trifluoromethyl)thieno[3,2-b]pyridin-5-yl)oxy)cyclobutyl)carbamate]",< 100
11,"CNC(=O)c1csc2c(C(F)(F)F)c(C)c(O[C@H]3C[C@@H](NC(=O)O[C@@H](C)C4CC4)C3)nc12 [Example 220, (S)-1-Cyclopropylethyl ((1S,3R)-3-((6-methyl-3-(methylcarbamoyl)-7 (trifluoromethyl)thieno[3,2-b]pyridin-5-yl)oxy)cyclobutyl)carbamate]",< 100
